In the supplement of paper PMC10307832:

Assays:
Assay in all cases: relative viability (nuclei count vs DMSO), 5 days (fraction); higher = more cells survive
XMD14-99 + Trametinib = compound: CN1CCN(CC1)C2=CC(=C(C=C2)NC3=NC(=C(S3)C(=O)C4=C(C=CC=C4Cl)Cl)N)OC [XMD14-99] + CC(=O)Nc1cccc(-n2c(=O)n(C3CC3)c(=O)c3c(Nc4ccc(I)cc4F)n(C)c(=O)c(C)c32)c1 [Trametinib] (partner 0.02 µM)
Outline: (§1)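 Nuclei were stained with Hoechst during a one-step fixation (final 0.05% Triton X-100, 1% formaldehyde, 1 ug/ml Hoechst) carried out 5 days after dosing, then counted on 4× images. The cells, lung cancer lines in 1536-well plates, had been dosed by pin tool the day after seeding with one drug alone or a fixed anchor-drug dose plus five library-drug doses (not always all listed) in √10 steps. Relative viability is the nuclei count in treated wells divided by that in vehicle wells, and each value is the median of duplicate plates.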

XMD14-99 + Pictilisib = compound: CN1CCN(CC1)C2=CC(=C(C=C2)NC3=NC(=C(S3)C(=O)C4=C(C=CC=C4Cl)Cl)N)OC [XMD14-99] + CS(=O)(=O)N1CCN(Cc2cc3nc(-c4cccc5[nH]ncc45)nc(N4CCOCC4)c3s2)CC1 [Pictilisib] (partner 1 µM)
Outline: as §1

XMD14-99 + AZD7762 = compound: CN1CCN(CC1)C2=CC(=C(C=C2)NC3=NC(=C(S3)C(=O)C4=C(C=CC=C4Cl)Cl)N)OC [XMD14-99] + NC(=O)Nc1cc(-c2cccc(F)c2)sc1C(=O)N[C@H]1CCCNC1 [AZD7762] (partner 0.2 µM)
Outline: as §1

AZD1208 + Phenformin = compound: N[C@@H]1CCCN(c2c(/C=C3\SC(=O)NC3=O)cccc2-c2ccccc2)C1 [AZD1208] + N=C(N)NC(=N)NCCc1ccccc1 [Phenformin] (partner 250 µM)
Outline: as §1

| Cell Line | relative viability (XMD14-99 + Trametinib; first compound 0.08 µM) | relative viability (XMD14-99 + Trametinib; first compound 0.8 µM) | relative viability (XMD14-99 + Trametinib; first compound 2.53 µM) | relative viability (XMD14-99 + Trametinib; first compound 8 µM) | relative viability (XMD14-99 + Pictilisib; first compound 0.08 µM) | relative viability (XMD14-99 + Pictilisib; first compound 0.8 µM) | relative viability (XMD14-99 + Pictilisib; first compound 2.53 µM) | relative viability (XMD14-99 + Pictilisib; first compound 8 µM) | relative viability (XMD14-99 + AZD7762; first compound 0.08 µM) | relative viability (XMD14-99 + AZD7762; first compound 0.8 µM) | relative viability (XMD14-99 + AZD7762; first compound 2.53 µM) | relative viability (XMD14-99 + AZD7762; first compound 8 µM) | relative viability (AZD1208 + Phenformin; first compound 0.08 µM) | relative viability (AZD1208 + Phenformin; first compound 0.253 µM) | relative viability (AZD1208 + Phenformin; first compound 0.8 µM) | relative viability (AZD1208 + Phenformin; first compound 2.53 µM) | relative viability (AZD1208 + Phenformin; first compound 8 µM) |
| --- | --- | --- | --- | --- | --- | --- | --- | --- | --- | --- | --- | --- | --- | --- | --- | --- | --- |
| NCI-H1975 | 0.263 | 0.416 | 0.32 | 0.308 | 0.286 | 0.317 | 0.257 | 0.197 | 0.743 | 0.745 | 0.717 | 0.569 | 0.413 | 0.449 | 0.393 | 0.404 | 0.359 |
| CAL-12T | 0.358 | 0.305 | 0.268 | 0.241 | 0.397 | 0.453 | 0.334 | 0.287 | 0.65 | 0.549 | 0.671 | 0.573 | 0.517 | 0.698 | 0.557 | 0.522 | 0.576 |
| NCI-H1623 | – | – | – | – | – | – | – | – | – | – | – | – | 0.573 | 0.642 | 0.593 | 0.548 | 0.611 |
| HCC-44 | 1.02 | 1.04 | 1.11 | 1.01 | 0.6 | 0.655 | 0.568 | 0.626 | 1.05 | 1.04 | 0.993 | 0.981 | 0.219 | 0.202 | 0.172 | 0.147 | 0.176 |
| EKVX | 0.321 | 0.298 | 0.382 | 0.294 | 0.422 | 0.488 | 0.487 | 0.35 | 0.654 | 0.692 | 0.651 | 0.522 | 0.23 | 0.247 | 0.258 | 0.256 | 0.228 |
| NCI-H1651 | 0.827 | 0.835 | 0.88 | 0.835 | 0.547 | 0.521 | 0.593 | 0.461 | 0.429 | 0.466 | 0.444 | 0.46 | 0.328 | 0.387 | 0.299 | 0.315 | 0.249 |
| NCI-H1944 | 0.446 | 0.374 | 0.381 | 0.338 | 0.325 | 0.335 | 0.337 | 0.269 | 0.501 | 0.539 | 0.436 | 0.328 | 0.197 | 0.201 | 0.179 | 0.172 | 0.136 |
| NCI-H1703 | – | – | – | – | 0.276 | 0.269 | 0.27 | 0.22 | 0.0933 | 0.124 | 0.143 | 0.118 | – | – | – | – | – |
| Calu-6 | – | – | – | – | 0.881 | 0.824 | 0.785 | 0.57 | – | – | – | – | – | – | – | – | – |
| EBC-1 | – | – | – | – | 0.481 | 0.391 | 0.318 | 0.26 | – | – | – | – | – | – | – | – | – |
| A-427 | 0.762 | 0.668 | 0.651 | 0.553 | 0.694 | 0.784 | 0.607 | 0.448 | 0.692 | 0.621 | 0.496 | 0.454 | 0.318 | 0.367 | 0.257 | 0.323 | 0.262 |
| NCI-H2405 | 0.641 | 0.751 | 0.626 | 0.575 | 0.39 | 0.414 | 0.457 | 0.248 | 0.745 | 0.809 | 0.586 | 0.479 | 0.385 | 0.384 | 0.35 | 0.362 | 0.35 |
| NCI-H1355 | 0.439 | 0.434 | 0.355 | 0.33 | 0.483 | 0.439 | 0.378 | 0.327 | 0.85 | 0.625 | 0.652 | 0.572 | 0.479 | 0.469 | 0.416 | 0.447 | 0.392 |
| NCI-H358 | 0.118 | 0.179 | 0.134 | 0.127 | 0.327 | 0.301 | 0.229 | 0.176 | 0.487 | 0.593 | 0.461 | 0.455 | 0.325 | 0.353 | 0.309 | 0.305 | 0.259 |
| RERF-LC-KJ | 0.808 | 0.846 | 0.76 | 0.682 | 0.668 | 0.521 | 0.487 | 0.477 | 0.902 | 1 | 0.86 | 0.794 | 0.402 | 0.44 | 0.427 | 0.41 | 0.379 |
| NCI-H23 | 0.487 | 0.326 | 0.47 | 0.364 | 0.46 | 0.547 | 0.526 | 0.383 | 0.284 | 0.312 | 0.25 | 0.188 | 0.793 | 0.828 | 0.627 | 0.798 | 0.609 |
| HOP-62 | 0.382 | 0.419 | 0.412 | 0.368 | 0.917 | 0.842 | 0.808 | 0.646 | 0.489 | 0.57 | 0.726 | 0.513 | 0.689 | 0.745 | 0.664 | 0.628 | 0.613 |
| HARA | 0.577 | 0.549 | 0.465 | 0.466 | 0.35 | 0.382 | 0.222 | 0.298 | 0.334 | 0.261 | 0.237 | 0.217 | 0.454 | 0.498 | 0.377 | 0.474 | 0.468 |
| PC-14 | 0.668 | 0.726 | 0.59 | 0.217 | 0.621 | 0.611 | 0.573 | 0.312 | 0.37 | 0.416 | 0.36 | 0.309 | 0.778 | 0.616 | 0.525 | 0.544 | 0.565 |
| NCI-H1755 | 0.794 | 0.777 | 0.752 | 0.559 | 0.404 | 0.401 | 0.426 | 0.295 | 0.44 | 0.366 | 0.467 | 0.357 | 0.586 | 0.616 | 0.623 | 0.593 | 0.502 |
| HCC-78 | 0.628 | 0.711 | 0.753 | 0.438 | 0.221 | 0.224 | 0.2 | 0.191 | 0.567 | 0.565 | 0.749 | 0.404 | 0.766 | 1.03 | 0.692 | 0.753 | 0.644 |
